In patent publication US10245275B2 (ViiV HEALTHCARE UK (NO.4) LIMITED, priority 2014, dated 2019):
Like-named read-outs stand apart in the source and are kept apart here.

Experiments:
[1] = tested on: WT (wild-type HIV virus; recombinant NL4-3 virus); assay: microbe, parasite or virus in culture; format: cell-based, HIV-1
Outline: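 MT-2 cells infected 4-5 days with NL4-3 carrying Renilla luciferase in place of part of nef (Gag P373S), virus made by 293T transfection, with serial inhibitor dilutions. Antiviral activity read as luciferase activity by a modified dual-luciferase read-out.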

[2] = tested on: HIV-1 NL4-3 gag A364V virus; assay: microbe, parasite or virus in culture; format: cell-based
Outline: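 Recombinant NL4-3 reporter virus with Renilla luciferase replacing part of nef, made by transfection of 293T cells. MT-2 cells infected for 4-5 days with serial inhibitor dilutions; antiviral activity quantified by luciferase activity.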

[3] = Human immunodeficiency virus 1, NL43, MT2, read-out: WT (EC50, uM), Table 1 regular screen, MT-2 cells, luciferase readout
[4] = Human immunodeficiency virus 1, NL43, MT2, read-out: A364V (EC50, uM), Table 1 regular screen, MT-2 cells, luciferase readout
[5] = Human immunodeficiency virus 1, NL43, MT2, read-out: WT (EC50, uM), Table 1 regular screen, class symbol
[6] = Human immunodeficiency virus 1, NL43, MT2, read-out: A364V (EC50, uM), Table 1 regular screen, class symbol

## C=C(C)[C@@H]1CC[C@]2(NCCC3(O)CCN(C(C)=O)CC3)CC[C@]3(C)[C@H](CC[C@@H]4[C@@]5(C)CC=C(C6=CC[C@](CF)(C(=O)O)CC6)C(C)(C)[C@@H]5CC[C@]43C)[C@@H]12 [Example 2-15, (S)-4-((1R,3aS,5aR,5bR,7aR,11aS,11bR,13aR,13bR)-3a-((2-(1-acetyl-4-hydroxypiperidin-4-yl)ethyl)amino)-5a,5b, 8,8,11a-pentamethyl-1-(prop-1-en-2-yl)-2,3,3a,4,5,5a,5b,6,7,7a,8,11,11a,11b,12,13,13a,13b-octadecahydro-1H-cyclopenta[a]chrysen-9-yl)-1-(fluoromethyl)cyclohex-3-enecarboxylic acid]
[1]; [3]
  EC50: 0.00173 µM
[2]; [4]
  EC50: 0.151 µM

## CC(C)[C@@H]1CC[C@]2(NCCN3CCS(=O)(=O)CC3)CC[C@]3(C)[C@H](CC[C@@H]4[C@@]5(C)CC=C(C6CCC(CF)(C(=O)O)CC6)C(C)(C)[C@@H]5CC[C@]43C)[C@@H]12 (stereo partly drawn) [Example 23, 4-((1S,3aS,5aR,5bR,7aR,11aS,11bR,13aR,13bR)-3a-((2-(1,1-dioxidothiomorpholino)ethyl)amino)-1-isopropyl-5a,5b, 8,8,11a-pentamethyl-2,3,3a,4,5,5a,5b,6,7,7a,8,11,11a,11b,12,13,13a,13b-octadecahydro-1H-cyclopenta[a]chrysen-9-yl)-1-(fluoromethyl)cyclohexanecarboxylic acid]
[1]; [5]
  EC50: < 0.05 µM
[2]; [6]
  EC50: > 0.05 µM

## C=C(C)[C@@H]1CC[C@]2(NCC[C@]3(O)CC[C@H](S(C)(=O)=O)CC3)CC[C@]3(C)[C@H](CC[C@@H]4[C@@]5(C)CC=C(C6=CC[C@](CF)(C(=O)O)CC6)C(C)(C)[C@@H]5CC[C@]43C)[C@@H]12 [Example 2-21, (S)-1-(fluoromethyl)-4-((1R,3aS,5aR,5bR,7aR,11aS,11bR,13aR,13bR)-3a-((2-((trans)-1-hydroxy-4-(methylsulfonyl)cyclohexyl)ethyl)amino)-5a,5b, 8,8,11a-pentamethyl-1-(prop-1-en-2-yl)-2,3,3a,4,5,5a,5b,6,7,7a,8,11,11a,11b,12,13,13a,13b-octadecahydro-1H-cyclopenta[a]chrysen-9-yl)cyclohex-3-enecarboxylic acid]
[1]; [5]
  EC50: < 0.05 µM
[2]; [6]
  EC50: > 0.05 µM

## C=C(C)[C@@H]1CC[C@]2(NCCCC(C)(C)O)CC[C@]3(C)[C@H](CC[C@@H]4[C@@]5(C)CC=C(C6=CC[C@](CF)(C(=O)O)CC6)C(C)(C)[C@@H]5CC[C@]43C)[C@@H]12 [Example 2-3, (S)-1-(fluoromethyl)-4-((1R,3aS,5aR,5bR,7aR,11aS,11bR,13aR,13bR)-3a-((4-hydroxy-4-methylpentyl)amino)-5a,5b,8,8,11a-pentamethyl-1-(prop-1-en-2-yl)-2,3,3a,4,5,5a,5b,6,7,7a,8,11,11a,11b,12,13,13a,13b-octadecahydro-1H-cyclopenta[a]chrysen-9-yl)cyclohex-3-enecarboxylic acid]
[1]; [5]
  EC50: < 0.05 µM
[2]; [6]
  EC50: > 0.05 µM

## C=C(C)[C@@H]1CC[C@]2(NCCN3CC(C)S(=O)(=O)C(C)C3)CC[C@]3(C)[C@H](CC[C@@H]4[C@@]5(C)CC=C(C6=CC[C@@](CF)(C(=O)O)CC6)C(C)(C)[C@@H]5CC[C@]43C)[C@@H]12 (stereo partly drawn) [Example 24, (1R)-4-((1R,3aS,5aR,5bR,7aR,11aS,11bR,13aR,13bR)-3a-((2-(2,6-dimethyl-1,1-dioxidothiomorpholino)ethyl)amino)-5a,5b,8,8,11a-pentamethyl-1-(prop-1-en-2-yl)-2,3,3a,4,5,5a,5b,6,7,7a,8,11,11a,11b,12,13,13a,13b-octadecahydro-1H-cyclopenta[a]chrysen-9-yl)-1-(fluoromethyl)cyclohex-3-enecarboxylic acid]
[1]; [5]
  EC50: < 0.05 µM
[2]; [6]
  EC50: > 0.05 µM

## C=C(C)[C@@H]1CC[C@]2(NCCC3(O)CCC3)CC[C@]3(C)[C@H](CC[C@@H]4[C@@]5(C)CC=C(C6=CC[C@](CF)(C(=O)O)CC6)C(C)(C)[C@@H]5CC[C@]43C)[C@@H]12 [Example 2-9, (S)-1-(fluoromethyl)-4-((1R,3aS,5aR,5bR,7aR,11aS,11bR,13aR,13bR)-3a-((2-(1-hydroxycyclobutyl)ethyl)amino)-5a,5b,8,8,11a-pentamethyl-1-(prop-1-en-2-yl)-2,3,3a,4,5,5a,5b,6,7,7a,8,11,11a,11b,12,13,13a,13b-octadecahydro-1H-cyclopenta[a]chrysen-9-yl)cyclohex-3-enecarboxylic acid]
[1]; [5]
  EC50: < 0.05 µM
[2]; [6]
  EC50: > 0.05 µM

## C=C(C)[C@@H]1CC[C@]2(NCC[C@]3(O)CC[C@@H](S(C)(=O)=O)CC3)CC[C@]3(C)[C@H](CC[C@@H]4[C@@]5(C)CC=C(C6=CC[C@](CF)(C(=O)O)CC6)C(C)(C)[C@@H]5CC[C@]43C)[C@@H]12 [Example 2-19, (S)-1-(fluoromethyl)-4-((1R,3aS,5aR,5bR,7aR,11aS,11bR,13aR,13bR)-3a-((2-((cis)-1-hydroxy-4-(methylsulfonyl)cyclohexyl)ethyl)amino)-5a,5b,8,8,11a-pentamethyl-1-(prop-1-en-2-yl)-2,3,3a,4,5,5a,5b,6,7,7a,8,11,11a,11 b,12,13,13a,13b-octadecahydro-1H-cyclopenta[a]chrysen-9-yl)cyclohex-3-enecarboxylic acid]
[1]; [3]
  EC50: 0.00135 µM
[2]; [4]
  EC50: 0.0222 µM

## C=C(C)[C@@H]1CC[C@]2(NCCN3CCSCC3C(=O)O)CC[C@]3(C)[C@H](CC[C@@H]4[C@@]5(C)CC=C(C6=CC[C@@](CF)(C(=O)O)CC6)C(C)(C)[C@@H]5CC[C@]43C)[C@@H]12 (stereo partly drawn) [Example 18, 4-(2-(((1R,3aS,5aR,5bR,7aR,11aS,11bR,13aR,13bR)-9-((R)-4-carboxy-4-(fluoromethyl)cyclohex-1-en-1-yl)-5a,5b,8,8,11a-pentamethyl-1-(prop-1-en-2-yl)-2,3,3a,4,5,5a,5b,6,7,7a,8,11,11a,11b,12,13,13a,13b-octadecahydro-1H-cyclopenta[a]chrysen-3a-yl)amino)ethyl)thiomorpholine-3-carboxylic acid]
[1]; [3]
  EC50: 0.0243 µM
[2]; [4]
  EC50: 3 µM

## C=C(C)[C@@H]1CC[C@]2(NCCN3CCC(C(=O)O)(C(=O)O)CC3)CC[C@]3(C)[C@H](CC[C@@H]4[C@@]5(C)CC=C(C6=CC[C@@](CF)(C(=O)O)CC6)C(C)(C)[C@@H]5CC[C@]43C)[C@@H]12 [Example 16, 1-(2-(((1R,3aS,5aR,5bR,7aR,11aS,11bR,13aR,13bR)-9-((R)-4-carboxy-4-(fluoromethyl)cyclohex-1-en-1-yl)-5a,5b,8,8,11a-pentamethyl-1-(prop-1-en-2-yl)-2,3,3a,4,5,5a,5b,6,7,7a,8,11,11a,11b,12,13,13a,13b-octadecahydro-1H-cyclopenta[a]chrysen-3a-yl)amino)ethyl)piperidine-4,4-dicarboxylic acid]
[1]; [3]
  EC50: 0.43 µM
[2]; [4]
  EC50: 3 µM

## C=C(C)[C@@H]1CC[C@]2(NCCN3CCNC3=O)CC[C@]3(C)[C@H](CC[C@@H]4[C@@]5(C)CC=C(C6=CC[C@](CF)(C(=O)O)CC6)C(C)(C)[C@@H]5CC[C@]43C)[C@@H]12 [Example 2-25, (S)-1-(fluoromethyl)-4-((1R,3aS,5aR,5bR,7aR,11aS,11bR,13aR,13bR)-5a,5b, 8,8,11a-pentamethyl-3a-((2-(2-oxoimidazolidin-1-yl)ethyl)amino)-1-(prop-1-en-2-yl)-2,3,3a,4,5,5a,5b,6,7,7a,8,11,11a,11b,12,13,13a,13b-octadecahydro-1H-cyclopenta[a]chrysen-9-yl)cyclohex-3-enecarboxylic acid]
[1]; [5]
  EC50: < 0.05 µM
[2]; [6]
  EC50: > 0.05 µM

## C=C(C)[C@@H]1CC[C@]2(NC(CN)C(F)(F)F)CC[C@]3(C)[C@H](CC[C@@H]4[C@@]5(C)CC=C(C6=CC[C@](CF)(C(=O)O)CC6)C(C)(C)[C@@H]5CC[C@]43C)[C@@H]12 (single isomer, unassigned) [Example 40]
[1]; read-out: WT (EC50), Table 1 regular screen, MT-2 cells, luciferase readout
  EC50: 0.0687 µM
[2]; read-out: A364V (EC50), Table 1 regular screen, MT-2 cells, luciferase readout
  EC50: 3 µM

## CC(C)[C@@H]1CC[C@]2(NCCN3CCS(=O)(=O)CC3)CC[C@]3(C)[C@H](CC[C@@H]4[C@@]5(C)CC=C(C6=CC[C@@](CF)(C(=O)O)CC6)C(C)(C)[C@@H]5CC[C@]43C)[C@@H]12 [Example 22, (R)-4-((1S,3aS,5aR,5bR,7aR,11aS,11bR,13aR,13bR)-3a-((2-(1,1-dioxidothiomorpholino)ethyl)amino)-1-isopropyl-5a,5b, 8,8,11a-pentamethyl-2,3,3a,4,5,5a,5b,6,7,7a,8,11,11a,11b,12,13,13a,13b-octadecahydro-1H-cyclopenta[a]chrysen-9-yl)-1-(fluoromethyl)cyclohex-3-enecarboxylic acid]
[1]; [3]
  EC50: 0.00134 µM
[2]; [4]
  EC50: 0.0513 µM

## C=C(C)[C@@H]1CC[C@]2(NCC(=O)N3CCC(S(C)(=O)=O)C3)CC[C@]3(C)[C@H](CC[C@@H]4[C@@]5(C)CC=C(C6=CC[C@](CF)(C(=O)O)CC6)C(C)(C)[C@@H]5CC[C@]43C)[C@@H]12 (stereo partly drawn) [Example 36, (1S)-1-(fluoromethyl)-4-((1R,3aS,5aR,5bR,7aR,11aS,11bR,13aR,13bR)-5a,5b, 8,8,11a-pentamethyl-3a-((2-(3-(methylsulfonyl)pyrrolidin-1-yl)-2-oxoethyl)amino)-1-(prop-1-en-2-yl)-2,3,3a,4,5,5a,5b,6,7,7a,8,11,11a,11b,12,13,13a,13b-octadecahydro-1H-cyclopenta[a]chrysen-9-yl)cyclohex-3-enecarboxylic acid]
[1]; [5]
  EC50: < 0.05 µM
[2]; [6]
  EC50: > 0.05 µM
